Results: patent publication US11397184B2, “Selection of patients for combination therapy” (Syndax Pharmaceuticals, Inc., priority 2015, dated 2022)
Read-outs that look alike come from different tables or passages of the source.

Columns and labels:
[1] = tested on: CD14+ monocytes in PBMCs of breast cancer patients; assay: ENCORE 301 blood samples: flow cytometry of circulating monocyte populations, baseline vs C1D15; assay type: in vivo, human
From the text: (A) Gating strategy for analysis of CD14^+ monocytes (left panel), CD14^+HLA-DR^hi monocytes (red box, right upper panel), and CD14^+HLA-DR^low/neg monocytes (blue box, right lower panel) in PBMCs of breast cancer patients. Initially gated on single viable CD45^+ cells. […] (D) HLA-DR expression on CD14^+ monocytes in vitro. […] Median fluorescence intensity, MFI.
(§1) Blood samples were obtained on cycle 1 day 1 (C1D1; pre-treatment), C1D2, C1D8, and C1D15 for biomarker analyses. […] Cell populations were based on the following surface markers, in which “X−” means negative for marker X, “X+” means positive for marker X, “Xlow/−” means low levels to absence of marker X, and “Xhi” means high levels of expression of marker X:
(§2) Monocytes were analyzed for three populations: (1) CD14+; (2) CD14+, HLA-DRhi; and (3) CD14+, HLA-DRlow/−. PD-1, CTLA-4, and TIM-3 were measured on CD8+ T-cells, CD4+ T-cells, and Tregs, and CD40 was measured on myeloid derived suppressor cells.
(§3) The percent change in subsets at C1D15 vs. baseline was assessed based on the following surface markers: Lin-MDSC (lin;CD3,CD19,CD56)-HLA-DR-CD11b+CD33+), granulocytic MDSC (CD14−CD11b+CD33+), monocytic MDSC (Lin−HLA-DR−CD11b+CD33+CD14+), immature MDSC (Lin−HLA-DR−CD11b+CD33+CD14−), CD8+T-cells (CD4−CD8+), Foxp3−CD4+T-cells (CD8−CD4+Foxp3−), and Tregs (CD4+CD8−CD25hiFoxp3+). Monocytes were analyzed for three populations: CD14+, CD14+HLA-DRhi, and CD14+HLA-DR-low/negative. In addition, PD-1, CTLA-4, and TIM-3 were measured on T-cell subsets, and CD40 was measured on MDSCs.

[2] = tested on: advanced hormone receptor positive breast cancer; assay: ENCORE 301 randomized, placebo-controlled phase II trial: clinical outcome (PFS, OS); assay type: in vivo, human; conditions: the 34 patients analysed for immune subsets
From the text: Blood was collected from a subset of 49 patients (27 EE and 22 EP) representative of the 130 patients enrolled in ENCORE 301 on cycle 1 day 1 (C1D1; pretreatment), C1D2, C1D8, and C1D15 for biomarker analyses. Of these 49, C1D1 and C1D15 samples were available from 34 patients (20 EE and 14 EP) for further analysis of circulating immune subsets.

[3] = tested on: myeloid derived suppressor cells in PBMCs of breast cancer patients; assay: ENCORE 301 blood samples: flow cytometry of circulating MDSC subsets and CD40 on MDSCs, baseline vs C1D15; assay type: in vivo, human
From the text: (A) Gating strategy for analysis of MDSC phenotypes in PBMCs of breast cancer patients. Initial gating was on single viable CD45^+ cells. Lineage (CD3, CD19, CD56)^−HLA-DR^−CD11b^+CD33^+ cells were defined as Lin^−MDSCs. The Lin^−MDSCs were further divided into monocytic MDSCs (Lin^−HLA-DR^−CD11b^+CD33^+CD14^+ cells) and immature MDSCs (Lin^−HLA-DR^−CD11b^+CD33^+CD14^− cells). CD14^−CD11b^+CD33^+ cells were defined as granulocytic MDSCs. […]
as §1
Myeloid derived suppressor cell: CD3−, CD19−, CD56−, HLA-DR−, CD11b+, CD33+.
PMN-MDSC: CD14−, CD11b+, CD33+.
M-MDSC: CD3−, CD19−, CD56−, HLA-DR−, CD11b+, CD33+, CD14+.
Immature MDSC: CD3−, CD19−, CD56−, HLA-DR−, CD11b+, CD33+, CD14−.
as §2, §3

[4] = in vivo; cited from earlier work
[5] = tested on: T-cell subsets in PBMCs of breast cancer patients; assay: ENCORE 301 blood samples: T-cell subsets and immune checkpoint receptor expression; assay type: in vivo, human; conditions: ENCORE 301 patients, C1D15 vs baseline
Experimental: FIG. 5 illustrates gating strategy for analysis of T-cell subsets in PBMCs of breast cancer patients. (A) Initial gating was on single viable cells. The CD4^+ T-cells were further divided into Tregs (CD8^−CD4^+CD25^hiFoxp3^+ cells) and Foxp3^−CD4^+ T-cells (CD8^−CD4^+Foxp3^− cells). (B) Immune checkpoint receptor expression was evaluated for CD8^+ T-cells, Foxp3^−CD4^+ T-cells, and Tregs. Representative histograms for PD-1 (left), CTLA-4 (middle), and TIM-3 (right) were shown.
CD8+ T-cell: CD4−, CD8+, Foxp3−.
CD4+ T-cell: CD8−, CD4+, Foxp3−.
Tregs: CD4+, CD8−, CD25hi, Foxp3+.
as §2, §3

[6] = tested on: monocytic MDSCs, granulocytic MDSCs and Lineage cells from healthy donor PBMCs; assay: In vitro dead cell dye staining of PBMCs cultured with IL-6 and GM-CSF, then DMSO or entinostat; assay type: cell-based, human; conditions: entinostat 0.5 μM vs DMSO, two or three days, n=7
Experimental: (C) Absolute viable cell counts of MDSCs (upper panel, monocytic MDSCs; lower panel, granulocytic MDSCs). Fresh PBMCs (2×10^6 PBMCs/well) were cultured with IL-6 (10 ng/ml) and GM-CSF (10 ng/ml). […] (D) Percentage of dead cell dye-positive cells in the monocytic MDSCs (red line), granulocytic MDSCs (blue line), and Lineage cells (black line). […] Percentage of dead cell dye-positive cells among each population (monocytic MDSCs, granulocytic MDSCs, and lineage cells) was calculated. Mean±SD is shown (n=7).

[7] = tested on: squamous or non-squamous NSCLC; conditions: cited from earlier work
[8] = tested on: advanced refractory malignancies; conditions: cited from earlier work
melanoma = conditions: cited from earlier work
[9] = C1D1 vs C1D15, statistic not stated
[10] = breast cancer patients, EP n = 14, EE n = 20, mean
[11] = breast cancer patients, EP n = 14, EE n = 20, median

C=C1C[C@@H]2[C@H](CC[C@]3(C)C(=O)CC[C@@H]23)[C@@]2(C)C=CC(=O)C=C12 [EP]
HLA-DR levels (expression) on monocytes, change [1, 9]: −4.7%
change of (number of) HLA-DR+ monocytes [1, 9]: −11.38%
CD14+ change from baseline to C1D15, Mean (SD) [1, 10]: −0.58 (22.73) %
CD14+HLA-DR HI change from baseline to C1D15, Mean (SD) [1, 10]: −8.63 (17.77) %
CD14+HLA-DR LO/NEG change from baseline to C1D15, Mean (SD) [1, 10]: 13.45 (43.11) %
HLA-DR expression on CD14+ change from baseline to C1D15, Mean (SD) [1, 10]: −6.23 (18.77) %
CD14+ change from baseline to C1D15, Median (Min, Max) [1, 11]: 1.90 %
CD14+HLA-DR HI change from baseline to C1D15, Median (Min, Max) [1, 11]: −11.38 %
CD14+HLA-DR LO/NEG change from baseline to C1D15, Median (Min, Max) [1, 11]: 1.55 %
HLA-DR expression on CD14+ change from baseline to C1D15, Median (Min, Max) [1, 11]: −4.74 %
Overall Survival (OS) [2]: 20.3 months
Progression Free Survival (PFS) [2]: 1.8 months
change of M-MDSCs (monocytic MDSC) [3, 9]: +1.97%
change of PMN-MDSCs (granulocytic MDSC) [3, 9]: +20.56%
change of immature MDSCs [3, 9]: −15.0%
CD40 on Lin-MDSCs change from baseline to C1D15, Mean (SD) [3, 10]: 14.85 (34.92) %
CD40 on g-MDSCs change from baseline to C1D15, Mean (SD) [3, 10]: 16.52 (32.07) %
CD40 on immature MDSCs change from baseline to C1D15, Mean (SD) [3, 10]: 18.64 (35.15) %
CD40 on m-MDSCs change from baseline to C1D15, Mean (SD) [3, 10]: 3.37 (25.69) %
Lin-MDSCs change from baseline to C1D15, Mean (SD) [3, 10]: 1.28 (83.31) %
g-MDSCs change from baseline to C1D15, Mean (SD) [3, 10]: 20.56 (68.45) %
immature MDSCs change from baseline to C1D15, Mean (SD) [3, 10]: 4.92 (94.50) %
m-MDSCs change from baseline to C1D15, Mean (SD) [3, 10]: 28.24 (86.60) %
CD40 on Lin-MDSCs change from baseline to C1D15, Median (Min, Max) [3, 11]: 3.37 %
CD40 on g-MDSCs change from baseline to C1D15, Median (Min, Max) [3, 11]: 10.52 %
CD40 on immature MDSCs change from baseline to C1D15, Median (Min, Max) [3, 11]: 9.00 %
CD40 on m-MDSCs change from baseline to C1D15, Median (Min, Max) [3, 11]: 1.57 %
Lin-MDSCs change from baseline to C1D15, Median (Min, Max) [3, 11]: −22.11 %
g-MDSCs change from baseline to C1D15, Median (Min, Max) [3, 11]: 3.82 %
immature MDSCs change from baseline to C1D15, Median (Min, Max) [3, 11]: −20.94 %
m-MDSCs change from baseline to C1D15, Median (Min, Max) [3, 11]: 1.97 %

Nc1ccccc1NC(=O)c1ccc(CNC(=O)OCc2cccnc2)cc1 [Entinostat, N-(2-aminophenyl)-4-[N-(pyridine-3-yl)methoxycarbonylamino-methyl]-benzamide]
half-life [4]: about 100 hours
alteration of expression of CTLA-4, PD-1, or TIM-3 on T-cell subsets [5]: did not significantly
percentage of dead (dead cell dye-positive) granulocytic MDSCs ([6]; P=0.016): increased
percentage of dead (dead cell dye-positive) monocytic MDSCs ([6]; P=0.016): increased
percentage of dead (dead cell dye-positive) lineage cells (CD3+, CD19+, or CD56+) ([6]; P=0.7): not increased

MPDL3280A: human anti-PD-L1 mAb with engineered Fc domain
24-week PFS rate ([7]; non-squamous cell NSCLC): 46%
24-week PFS rate ([7]; squamous cell NSCLC): 44%

Pembrolizumab: humanized monoclonal IgG4 anti-PD-1 antibody
maximum tolerated dose ([8]; 1, 3 and 10 mg/kg intravenously): not reached
patients with some tumor regression ([8]; dose-escalation study): Four
half-life ([8]; in vivo): 13.6 to 21.7 days
overall objective response rate (ORR) (melanoma; immune-related response criteria, 44 of 117): 38%
patients with some AEs (melanoma; in vivo): 79%
rate of severe toxicities, less dose intense cohorts (melanoma; in vivo): < 10%
median progression free survival (melanoma; melanoma): exceeded 7 months
patients with some degree of tumor regression (melanoma; melanoma): 77%
